The source of these data is patent US7709471B2, “Compounds” (AstraZeneca AB, priority 2006, dated 2010).

The structures appear in SMILES notation. pIC50: −log10 of the molar value. Where only a bound is given, the exact number is not on record here.

The assay has as its system human colon tumour cell line HT29. The assay is described as follows: Cellular Assay (phosphohistone H3 Ser10 mitotic marker, HT29). In kind it is cell-based. To be noted: HT-29, 24 h, HT29 cells, read-out: IC50 (cellular assay, phosphohistone H3).

Protocol: Chromosome condensation in mitosis is accompanied by phosphorylation of histone H3 on serine 10.
After 24 hours, cells were fixed in 3.7% (v/v) formaldehyde then permeabilised and blocked for 10 minutes in 100 μl 0.5% (v/v) Triton X-100, 1% (w/v) bovine serum albumin (BSA) in phosphate buffered saline (PBS). […] The raw assay data were analysed by non-linear regression analysis and used to determine an IC50 value for each compound.

A word on the pIC50: it is the IC50 on a negative log10 scale, so that one unit is a factor of ten. Take `COc1cc(C(=O)NCCN(C)C)ccc1Nc1ncc2c(n1)N(C1CCCC1)CC(C)(C)C(=O)N2C` [Example 359, 4-[(2-cyclopentyl-4,4,6-trimethyl-5-oxo-2,6,9,11-tetrazabicyclo[5.4.0]undeca-7,9,11-trien-10-yl)amino]-N-(2-dimethylaminoethyl)-3-methoxy-benzamide]: the pIC50 is over 6.52.

Consider `COc1cc(C(=O)NC2CCN(C)CC2)ccc1Nc1ncc2c(n1)N(C1CCCC1)CC1(CCCC1)C(=O)N2C` [Example 409, 4-(9′-cyclopentyl-5′-methyl-6′-oxo-5′,6′,8′,9′-tetrahydrospiro[cyclopentane-1,7′-pyrimido[5,4-b][1,4]diazepine]-2′-ylamino)-3-methoxy-N-(1-methylpiperidin-4-yl)benzamide], for which the pIC50 was over 6.52.

`COc1cc(C(=O)NCCN(C)C)ccc1Nc1ncc2c(n1)N(C(C)C)CC(C)(C)C(=O)N2C` [Example 302, N-(2-dimethylaminoethyl)-3-methoxy-4-[(4,4,6-trimethyl-5-oxo-2-propan-2-yl-2,6,9,11-tetrazabicyclo[5.4.0]undeca-7,9,11-trien-10-yl)amino]benzamide]: the pIC50 is over 6.00.

On to `CCOc1cc(C(=O)N[C@@H]2CCN(C)C2)ccc1Nc1ncc2c(n1)N(C(C)C)CCC(=O)N2C` [Example 284, 3-ethoxy-4-[(6-methyl-5-oxo-2-propan-2-yl-2,6,9,11-tetrazabicyclo[5.4.0]undeca-7,9,11-trien-10-yl)amino]-N-[(3R)-1-methylpyrrolidin-3-yl]benzamide], for which the pIC50 was over 4.52.

As to `CC(C)N1CC(C)(C)C(=O)N(C)c2cnc(Nc3cc(F)c(C(=O)NC4CCN(C)CC4)cc3Cl)nc21` [Example 289, 5-chloro-2-fluoro-N-(1-methyl-4-piperidyl)-4-[(4,4,6-trimethyl-5-oxo-2-propan-2-yl-2,6,9,11-tetrazabicyclo[5.4.0]undeca-7,9,11-trien-10-yl)amino]benzamide], the negative-log IC50 (pIC50) is over 6.00.

Regarding `COc1cc(C(=O)NCC(C)(C)CN(C)C)ccc1Nc1ncc2c(n1)N(C(C)C)CC1(CC1)C(=O)N2C` [Example 313, N-(3-(dimethylamino)-2,2-dimethylpropyl)-4-(9′-isopropyl-5′-methyl-6′-oxo-5′,6′,8′,9′-tetrahydrospiro[cyclopropane-1,7′-pyrimido[5,4-b][1,4]diazepine]-2′-ylamino)-3-methoxybenzamide], the negative logarithm of the IC50 (pIC50) is over 6.52.

Turning to `CN1CC[C@@H](NC(=O)c2cc(F)c(Nc3ncc4c(n3)N(C3CCCCC3)CCC(=O)N4C)cc2F)C1` [Example 414, 4-[(2-cyclohexyl-6-methyl-5-oxo-2,6,9,11-tetrazabicyclo[5.4.0]undeca-7,9,11-trien-10-yl)amino]-2,5-difluoro-N-[(3R)-1-methylpyrrolidin-3-yl]benzamide], the pIC50 is over 6.52.

As for `COc1cc(C(=O)NCCCN(C)C)ccc1Nc1ncc2c(n1)N(C1CCCCC1)CCC(=O)N2C` [Example 424, 4-[(2-cyclohexyl-6-methyl-5-oxo-2,6,9,11-tetrazabicyclo[5.4.0]undeca-7,9,11-trien-10-yl)amino]-N-(3-dimethylaminopropyl)-3-methoxy-benzamide], the pIC50 is over 6.52.

For the compound `CCN1CCC(NC(=O)c2cc(Cl)c(Nc3ncc4c(n3)N(C(C)C)CC3(CC3)C(=O)N4C)cc2F)CC1` [Example 311, 5-chloro-N-(1-ethylpiperidin-4-yl)-2-fluoro-4-(9′-isopropyl-5′-methyl-6′-oxo-5′,6′,8′,9′-tetrahydrospiro[cyclopropane-1,7′-pyrimido[5,4-b][1,4]diazepine]-2′-ylamino)benzamide], the pIC50 is over 6.00.

Take `COc1cc(C(=O)NCCN2CCCC2)ccc1Nc1ncc2c(n1)N(C(C)C)CC(C)(C)C(=O)N2C` [Example 301, 3-methoxy-N-(2-pyrrolidin-1-ylethyl)-4-[(4,4,6-trimethyl-5-oxo-2-propan-2-yl-2,6,9,11-tetrazabicyclo[5.4.0]undeca-7,9,11-trien-10-yl)amino]benzamide]: the pIC50 was over 6.00.

Turning to `CN1C(=O)CCN(C2CCCCC2)c2nc(Nc3ccc(C(=O)NC4C[C@H]5CCC[C@@H](C4)N5C)cc3F)ncc21` (stereo partly drawn) [Example 417, 4-[(2-cyclohexyl-6-methyl-5-oxo-2,6,9,11-tetrazabicyclo[5.4.0]undeca-7,9,11-trien-10-yl)amino]-3-fluoro-N-[(1S,5R)-9-methyl-9-azabicyclo[3.3.1]non-7-yl]benzamide], the negative logarithm of the IC50 (pIC50) is over 6.52.

Turning to `CCN1CCC(NC(=O)c2ccc(Nc3ncc4c(n3)N(C3CCCCC3)CCC(=O)N4C)c(OC)c2)CC1` [Example 423, 4-[(2-cyclohexyl-6-methyl-5-oxo-2,6,9,11-tetrazabicyclo[5.4.0]undeca-7,9,11-trien-10-yl)amino]-N-(1-ethyl-4-piperidyl)-3-methoxy-benzamide], the negative-log IC50 (pIC50) was over 6.52.

In the case of `CCN1CCC(NC(=O)c2ccc(Nc3ncc4c(n3)N(C(C)C)CC(CC)(CC)C(=O)N4C)c(OC)c2)CC1` [Example 305, 4-[(4,4-diethyl-6-methyl-5-oxo-2-propan-2-yl-2,6,9,11-tetrazabicyclo[5.4.0]undeca-7,9,11-trien-10-yl)amino]-N-(1-ethyl-4-piperidyl)-3-methoxy-benzamide], the negative logarithm of the IC50 (pIC50) is over 6.52.

In the case of `COc1cc(C(=O)NC2C[C@H]3CCC[C@@H](C2)N3C)ccc1Nc1ncc2c(n1)N(C1CCCC1)CC(C)(C)C(=O)N2` (stereo partly drawn) [Example 278, 4-[(2-cyclopentyl-4,4-dimethyl-5-oxo-2,6,9,11-tetrazabicyclo[5.4.0]undeca-7,9,11-trien-10-yl)amino]-3-methoxy-N-[(1S,5R)-9-methyl-9-azabicyclo[3.3.1]non-7-yl]benzamide], the negative-log IC50 (pIC50) is over 6.00.

For `COc1cc(C(=O)NCCN2CCCC2)c(F)cc1Nc1ncc2c(n1)N(C1CCCCC1)CC1(CC1)C(=O)N2C` [Example 444, 4-(9′-cyclohexyl-5′-methyl-6′-oxo-5′,6′,8′,9′-tetrahydrospiro[cyclopropane-1,7′-pyrimido[5,4-b][1,4]diazepine]-2′-ylamino)-2-fluoro-5-methoxy-N-(2-pyrrolidin-1-ylethyl)benzamide], the pIC50 was over 6.52.

On to `CCN1CCC(NC(=O)c2cc(OC)c(Nc3ncc4c(n3)N(C3CCCCC3)CCC(=O)N4C)cc2F)CC1` [Example 422, 4-[(2-cyclohexyl-6-methyl-5-oxo-2,6,9,11-tetrazabicyclo[5.4.0]undeca-7,9,11-trien-10-yl)amino]-N-(1-ethyl-4-piperidyl)-2-fluoro-5-methoxy-benzamide], for which the negative-log IC50 (pIC50) was over 6.52.

With `COc1cc(C(=O)NC2C[C@H]3CCC[C@@H](C2)N3C)c(F)cc1Nc1ncc2c(n1)N(C1CCCC1)CC1(CC1)C(=O)N2C` (stereo partly drawn) [Example 404, 4-(9′-cyclopentyl-5′-methyl-6′-oxo-5′,6′,8′,9′-tetrahydrospiro[cyclopropane-1,7′-pyrimido[5,4-b][1,4]diazepine]-2′-ylamino)-2-fluoro-5-methoxy-N-[(1S,5R)-9-methyl-9-azabicyclo[3.3.1]non-3-yl]benzamide], the negative-log IC50 (pIC50) was over 6.52.

In the case of `COc1cc(C(=O)NCC(C)(C)CN(C)C)ccc1Nc1ncc2c(n1)N(C1CCCC1)CC(C)(C)C(=O)N2C` [Example 351, 4-[(2-cyclopentyl-4,4,6-trimethyl-5-oxo-2,6,9,11-tetrazabicyclo[5.4.0]undeca-7,9,11-trien-10-yl)amino]-N-(3-dimethylamino-2,2-dimethyl-propyl)-3-methoxy-benzamide], the pIC50 is over 6.52.
